Patent publication US7951804B2, “Piperidinyl compounds” (Merck Patent GmbH, priority 2003, dated 2011)
Where a name gives a salt, the structure may show the parent alone.

How the values were obtained:
TF/FVIIa = TF/FVIIa (Homo sapiens, UniProt P08709); assay: TF/factor VIIa inhibition (TF/FVIIa-IC50); assay type: biochemical
Text: The inhibition of factor VIIa by the compounds according to the invention and the measurement of the anticoagulant and antithrombotic activity can be determined by conventional in-vitro or in-vivo methods. A conventional method for the measurement of the inhibition of factor Vila is described, for example, by H. F. Ronning et al. in Thrombosis Research 1996, 84, 73-81.

FXa = FXa (Homo sapiens, UniProt P00742); assay: Factor Xa inhibition (FXa-IC50); assay type: biochemical
Text: The inhibition of factor Xa by the compounds according to the invention and the measurement of the anticoagulant and antithrombotic activity can be determined by conventional in-vitro or in-vivo methods. A suitable method is described, for example, by J. Hauptmann et al. in Thrombosis and Haemostasis 1990, 63, 220-223.
The inhibition of factor Xa can be measured, for example, by the method of T. Hara et al. in Thromb. Haemostas. 1994, 71, 314-319.

TF/FVIIa, sequence (P08709 213-466 limits assumed): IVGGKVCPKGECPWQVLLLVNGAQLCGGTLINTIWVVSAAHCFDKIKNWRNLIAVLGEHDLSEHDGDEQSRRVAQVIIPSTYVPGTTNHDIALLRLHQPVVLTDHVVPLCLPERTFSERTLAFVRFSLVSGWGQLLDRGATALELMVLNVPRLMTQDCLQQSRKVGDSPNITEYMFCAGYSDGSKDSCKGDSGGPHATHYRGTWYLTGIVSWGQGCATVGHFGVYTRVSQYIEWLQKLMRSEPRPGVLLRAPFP
TF/FVIIa, sequence (P08709 61-212 partner limits assumed): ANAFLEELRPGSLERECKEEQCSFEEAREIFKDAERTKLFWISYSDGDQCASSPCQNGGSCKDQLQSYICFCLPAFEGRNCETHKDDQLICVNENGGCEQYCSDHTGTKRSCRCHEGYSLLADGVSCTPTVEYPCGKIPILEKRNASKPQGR
TF/FVIIa, sequence (P13726 33-295 partner): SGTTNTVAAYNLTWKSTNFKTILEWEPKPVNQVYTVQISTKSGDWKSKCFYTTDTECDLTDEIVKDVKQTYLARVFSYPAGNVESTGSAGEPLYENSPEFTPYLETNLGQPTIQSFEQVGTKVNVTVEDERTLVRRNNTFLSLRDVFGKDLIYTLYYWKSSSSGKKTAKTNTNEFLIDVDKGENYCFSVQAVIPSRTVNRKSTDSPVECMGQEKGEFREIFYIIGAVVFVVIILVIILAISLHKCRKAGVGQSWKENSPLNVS
FXa, sequence (P00742 235-488 limits assumed): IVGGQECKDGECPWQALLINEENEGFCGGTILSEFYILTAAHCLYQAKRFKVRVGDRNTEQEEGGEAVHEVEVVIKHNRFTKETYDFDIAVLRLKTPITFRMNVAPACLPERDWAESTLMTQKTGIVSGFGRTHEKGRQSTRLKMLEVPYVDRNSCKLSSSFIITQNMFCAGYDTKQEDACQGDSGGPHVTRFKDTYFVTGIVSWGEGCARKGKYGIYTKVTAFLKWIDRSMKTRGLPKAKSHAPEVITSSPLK
FXa, sequence (P00742 41-179 partner limits assumed): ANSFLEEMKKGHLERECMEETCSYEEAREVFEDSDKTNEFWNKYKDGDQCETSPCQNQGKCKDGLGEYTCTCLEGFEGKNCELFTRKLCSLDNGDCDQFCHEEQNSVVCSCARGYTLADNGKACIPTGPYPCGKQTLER

Row | IC50 (TF/FVIIa) | IC50 (FXa) | SMILES
1 | 6.9 nM | 6 nM | CN1CCC(C2CCN(C(=O)[C@H](NC(=O)Nc3ccc(Cl)cc3)c3ccccc3)CC2)CC1 [Compound 1, (R)-1-(4-chlorophenyl)-3-[2-(1′-methyl-4,4′-bipiperidinyl-1-yl)-2-oxo-1-phenylethyl]urea]
2 | 1700 nM | 670 nM | O=C(Nc1ccc(Cl)cc1)N[C@@H](C(=O)N1CCN(c2ccc(F)cc2)CC1)c1ccccc1 [Compound 2, (R)-1-(4-chlorophenyl)-3-{2-[4-(4-fluorophenyl)piperazin-1-yl]-2-oxo-1-phenylethyl}urea]
3 | 15 nM | 11 nM | CN1CCC(C2CCN(C(=O)[C@H](OC(=O)Nc3ccc(Cl)cc3)c3ccccc3)CC2)CC1 [Compound 49, 2-(1′-methyl-4,4′-bipiperidinyl-1-yl)-2-oxo-1-phenylethyl (R)-4-chlorophenyl)carbamate trifluoroacetate]
4 | 6.3 nM | 17 nM | CN1CCC(N2CCN(C(=O)[C@H](NC(=O)Nc3ccc(Cl)cc3)c3ccccc3)CC2)CC1 [Compound 5, (R)-1-(4-chlorophenyl)-3-{2-[4-(1-methylpiperidin-4-yl)piperazin-1-yl]-2-oxo-1-phenylethyl}urea bistrifluoroacetate]
